“And” between values parts separate entries of the source, which are not always exact repeats. Equal entries are not always repeated.

Here are results for six compounds from PubChem BioAssay AID2060352 (Molecular Pharmacology Branch, DTP, NCI, 2025).

The experiment relates to 616215-338-R-J1-PDC spheroid with HUVEC/MSC, viability. Description: Anticancer human tumor 616215-338-R-J1-PDC patient-derived colon adenocarcinoma cell line growth inhibition [TAK]. Particulars: for viability, T/C: stronger effect = lower value. From the text: Combinatorial screen of targeted agents with TAK-243 and ipatasertib in multi-cell type tumor spheroids
A high-throughput screen of multi-cell type tumor spheroids was designed to identify active combinations of targeted small molecules and TAK-243 or ipatasertib. Complex spheroids include a stromal component modeled by human endothelial cells (HUVEC) and fibroblasts modeled by human mesenchymal stem cells (MSCs). The concentration ranges selected for each drug and investigational agent were based upon clinically achievable concentrations if the clinical Cmax of the agent was known.
Compounds. The drugs and investigational agents: TAK-243 (785004), ipatasertib (767898), everolimus (733504), selumetinib (741078), bortezomib (756655), trametinib (758246), ixazomib (758254), vemurafenib (761431), dabrafenib (764134), sapanisertib (764658), alpelisib (765974), and copanlisib (816437), were obtained from the National Cancer Institute (NCI) Developmental Therapeutics Program Chemical Repository. The FDA-approved anticancer drug set is available from the NCI Developmental Therapeutics Program. […] The stock solutions were prepared in dimethyl sulfoxide (DMSO, Sigma-Aldrich, St. Louis, MO, cat. D2650) at 800-fold the tested concentration and stored at -70 degrees C prior to their use. All drugs and investigational agents were tested over a range starting from a high concentration at or near the clinical Cmax and decreasing in half-log increments. If the clinical Cmax for an agent had not been determined, the highest concentration tested was 10 microM.
NCI60 Cell Culture. NCI60 cell lines were obtained from the NCI Developmental Therapeutics Program Tumor Repository. For each lot of cells, the Repository performed Applied Biosystems AmpFLSTR Identifiler testing with PCR amplification to confirm consistency with the published Identifier STR profile for each cell line. Cells were kept in continuous culture for no more than 20 passages. The optimal seeding densities for each of the cell lines at each time point assessed were determined prior to performing the concentration response studies. Briefly, the NCI60 human tumor lines were grown as monolayers in RPMI 1640 medium supplemented with 10% FBS and 2 mmol/L L-glutamine.
An additional 2 lines were from the NCI60 cell line panel including melanomas, MALME-3M and SK-MEL-2. Pooled donor human umbilical vein endothelial cells (HUVEC, Lonza, cat. CC-2519) and human mesenchymal stem cells (hMSC, Lonza, cat. PT-2501) were purchased from Lonza (Walkersville, MD).
PDMR cell lines were grown in complete medium (DC medium): Dulbecco's modified Eagle's medium (DMEM)/F12 supplemented with 5% fetal bovine serum (FBS), 2 mM L-glutamine, 100 U/mL penicillin and 100 µg/ml streptomycin, 0.4 µg/ml hydrocortisone, 10 ng/ml epidermal growth factor (EGF) recombinant human protein, 24 µg/mL adenine, and 0.1 mg/mL primocin. During culture from frozen stock vials, PDMR cells were cultured in the same medium containing 10 µM Y-27632 (see Table 3). The PDCs were cultured in complete DMEM/F12 media without 10 microM Y-27632 dihydrochloride for at least two passages prior to the screen. The pooled donor HUVEC and hMSC were cultured in endothelial cell growth medium 2 (PromoCell, Heidelberg, Germany, cat. C-22011) and mesenchymal stem cell growth medium 2 (PromoCell, cat. C-28009), respectively. For all experiments, HUVEC and hMSC were used at passages </=5.
For the pre-screen, cell seeding densities were determined from a titration spanning the range from 5,000 to 313 cells per well. The mct-spheroids including 60% malignant cells, 25% HUVEC and 15% MSC dispensed as a mixture into U-bottom Ultra-Low Attachment 384-well plates (Corning, NY)
High-throughput Drug Combination Screening.
Prior to their inoculation into 384-well plates, malignant cells, HUVEC, and hMSC were removed from T flasks using TrypLE express (Thermo Fisher Scientific, cat. 12605036) and harvested by centrifugation for 5 min at 233 x g. […]

Setting [1] is: curve of first compound, second compound 0.3 µM.
Where [2] appears, read: curve of first compound, second compound 0.949 µM.
[3] abbreviates: curve of first compound, second compound 3 µM.
Where [4] appears, read: curve of first compound, second compound 9.49 µM.
Where [5] appears, read: curve of first compound, second compound 30 µM.
Where [6] appears, read: second compound 0.3 µM, first compound 0.0316 µM.
Where [7] appears, read: second compound 0.3 µM, first compound 0.1 µM.
[8] abbreviates: second compound 0.949 µM, first compound 0.0316 µM.
Setting [9] is: second compound 0.949 µM, first compound 0.1 µM.
Where [10] appears, read: second compound 3 µM, first compound 0.0316 µM.
Where [11] appears, read: second compound 3 µM, first compound 0.1 µM.
The mark [12] stands for this setting: second compound 9.49 µM, first compound 0.0316 µM.
[13] abbreviates: second compound 9.49 µM, first compound 0.1 µM.
Where [14] appears, read: second compound 30 µM, first compound 0.0316 µM.
[15] abbreviates: second compound 30 µM, first compound 0.1 µM.
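Also: spheroids exposed to drugs for 7 days before readout.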

On to `CC(C)(C)c1nc(-c2cccc(NS(=O)(=O)c3c(F)cccc3F)c2F)c(-c2ccnc(N)n2)s1`, for which the viability, T/C is, setting by setting: (compound 0.0316 µM) 104% and 106%; (compound 0.1 µM) 123% and 114%; (compound 0.316 µM) 132% and 107%; (compound 1 µM) 119% and 95.5%; (compound 3.16 µM) 73.2% and 54.6%; (compound 10 µM) 18.3% and 28.5%. Moreover, for the setting “curve of compound”, the IC50 was 5150 nM and 3870 nM.

In the case of `COc1c(OCCCN2CCOCC2)ccc2c3n(c(=NC(=O)c4cnc(N)nc4)nc12)CCN3`, the viability, T/C is 108% and 106% (compound 0.00316 µM); 108% and 113% (compound 0.01 µM); 117% and 114% (compound 0.0316 µM); 57.7% and 54.2% (compound 0.1 µM); 27.8% and 31.5% (compound 0.316 µM); 17.4% and 16.5% (compound 1 µM). Moreover, the 50% inhibitory concentration (IC50) (curve of compound) was 129 nM and 118 nM.

As to `CC(C)(C)c1nc(-c2cccc(NS(=O)(=O)c3c(F)cccc3F)c2F)c(-c2ccnc(N)n2)s1` + CC(C)NCC(C(=O)N1CCN(c2ncnc3c2C(C)CC3O)CC1)c1ccc(Cl)cc1, the IC50 is, setting by setting: under setting [1], 5380 nM; under setting [2], 834 nM; under setting [3], 182 nM; under setting [4], less than 31.6 nM; under setting [5], less than 31.6 nM. For the same compound, the viability, T/C by setting is: under setting [6], 130%; under setting [7], 140%; (second compound 0.3 µM, first compound 0.316 µM) 156%; (second compound 0.3 µM, first compound 1 µM) 138%; (second compound 0.3 µM, first compound 3.16 µM) 77.8%; (second compound 0.3 µM, first compound 10 µM) 17.5%. For the same compound, the viability, T/C runs as follows: under setting [8], 141%; under setting [9], 132%; (second compound 0.949 µM, first compound 0.316 µM) 87%; (second compound 0.949 µM, first compound 1 µM) 43.1%; (second compound 0.949 µM, first compound 3.16 µM) 22%; (second compound 0.949 µM, first compound 10 µM) 10.1%. The viability, T/C was 63.5% under setting [10]; 69% under setting [11]; 35.1% (second compound 3 µM, first compound 0.316 µM); 16.8% (second compound 3 µM, first compound 1 µM); 10.3% (second compound 3 µM, first compound 3.16 µM); 7.4% (second compound 3 µM, first compound 10 µM). Besides, the viability, T/C is, setting by setting: under setting [12], 21.2%; under setting [13], 19.9%; (second compound 9.49 µM, first compound 0.316 µM) 15.2%; (second compound 9.49 µM, first compound 1 µM) 8.91%; (second compound 9.49 µM, first compound 3.16 µM) 5.79%; (second compound 9.49 µM, first compound 10 µM) 6.27%. Besides, the viability, T/C is, setting by setting: under setting [14], 8.84%; under setting [15], 10.3%; (second compound 30 µM, first compound 0.316 µM) 7.86%; (second compound 30 µM, first compound 1 µM) 6.37%; (second compound 30 µM, first compound 3.16 µM) 3.65%; (second compound 30 µM, first compound 10 µM) 3.34%.

With `CC(C)NCC(C(=O)N1CCN(c2ncnc3c2C(C)CC3O)CC1)c1ccc(Cl)cc1` (centres undefined), the viability, T/C is 26.9% [middle of 10 runs] (compound 9.49 µM) and 12.7% [middle of 10 runs] (compound 30 µM). The IC50 is 6.46 µM [middle of 5 runs] (compound alone, run of 02/20/2020) and 5.01 µM [middle of 5 runs] (compound alone, run of 03/19/2020).

Turning to `CCCS(=O)(=O)Nc1ccc(F)c(C(=O)c2c[nH]c3ncc(-c4ccc(Cl)cc4)cc23)c1F`, the viability, T/C was 110% and 87.2% (compound 0.316 µM); 99.9% and 99.5% (compound 1 µM); 90.2% and 81% (compound 3.16 µM); 16.4% and 24.1% (compound 10 µM); 106% and 4.96% (compound 31.6 µM); 64.9% and 98.7% (compound 100 µM).

Take `COC1CC2CCC(C)C(O)(O2)C(=O)C(=O)N2CCCCC2C(=O)OC(C(C)CC2CCC(OCCO)C(OC)C2)CC(=O)C(C)C=C(C)C(O)C(OC)C(=O)C(C)CC(C)C=CC=CC=C1C` (centres undefined) + CC(C)NCC(C(=O)N1CCN(c2ncnc3c2C(C)CC3O)CC1)c1ccc(Cl)cc1: the half-inhibitory concentration (IC50) was greater than 100 nM under setting [1]; greater than 100 nM under setting [2]; 2.28 nM under setting [3]; less than 0.316 nM under setting [4]; less than 0.316 nM under setting [5]. Further, the viability, T/C reads like this: (second compound 0.3 µM, first compound 0.000316 µM) 133%; (second compound 0.3 µM, first compound 0.001 µM) 119%; (second compound 0.3 µM, first compound 0.00316 µM) 137%; (second compound 0.3 µM, first compound 0.01 µM) 129%; under setting [6], 130%; under setting [7], 104%. Besides, the viability, T/C by setting is: (second compound 0.949 µM, first compound 0.000316 µM) 119%; (second compound 0.949 µM, first compound 0.001 µM) 125%; (second compound 0.949 µM, first compound 0.00316 µM) 111%; (second compound 0.949 µM, first compound 0.01 µM) 97.1%; under setting [8], 82.5%; under setting [9], 80.3%. The viability, T/C is 61.5% (second compound 3 µM, first compound 0.000316 µM); 59.3% (second compound 3 µM, first compound 0.001 µM); 45.6% (second compound 3 µM, first compound 0.00316 µM); 38.3% (second compound 3 µM, first compound 0.01 µM); 35.8% under setting [10]; 32.1% under setting [11]. The viability, T/C was 23.1% (second compound 9.49 µM, first compound 0.000316 µM); 20% (second compound 9.49 µM, first compound 0.001 µM); 17.2% (second compound 9.49 µM, first compound 0.00316 µM); 16.2% (second compound 9.49 µM, first compound 0.01 µM); 15.8% under setting [12]; 14.9% under setting [13]. Besides, the viability, T/C runs as follows: (second compound 30 µM, first compound 0.000316 µM) 9.82%; (second compound 30 µM, first compound 0.001 µM) 9.86%; (second compound 30 µM, first compound 0.00316 µM) 10.5%; (second compound 30 µM, first compound 0.01 µM) 9.81%; under setting [14], 8.34%; under setting [15], 7.96%.

A word on the viability, T/C: it is the ratio of treated to control. Usually IC50 stands for the concentration that inhibits the measured activity by half.
